From patent US20230181601A1, “TREATMENT OF NON-ALCOHOLIC STEATOHEPATITIS (NASH)” (DURECT CORPORATION, priority 2020, published 2023)

Assays:
[1] = Phase 1b study in NASH patients: pharmacokinetics; format: in vivo, human; details: for CL/F / AUC(0-t) / Cmax / Tmax / half-life: NASH patients, mean (standard deviation); for AUC(0-t) / Cmax / Tmax / half-life: both sexes, human, plasma
Excerpt: A total of 63 patients completed the study with 21 patients per dose group (completion of MRI-PDFF measurement). […] Subjects provided written informed consent to participate in the study • 2. Males or females subjects 18 years or older, at the time of signing informed consent • 3. BMI 20-45 kg/m^2 • 4. […] Value of Fibroscan® ≥7 kPa • OR • b. MRE≥2.75 kPa • *Clinical diagnosis of NASH was defined in this clinical trial as the existence of one or more of the following risk factors for NASH, namely: • a. Type 2 diabetes or elevated fasting blood sugar • b. Abdominal obesity • c. Elevated lipid levels, especially elevated levels of serum triglycerides • d. Hypertension, or • e. Low levels of HDL cholesterol • 5. For serum transaminases, ALT concentration for all patients at the time of screening was >1 and <5 times upper limit of normal (ULN) of the central lab in the absence of another cause of liver disease. If a patient had lab records in the past 6 months, ALT concentrations were <20 U/L female and <30 U/L male. AST concentration for all patients at the time of screening was <5x ULN • 6. […] Platelet counts ≥120,000/mm^3 • 8. Female subjects were eligible for the study if they met the following criteria: • Are not pregnant or nursing • Women of child-bearing potential (defined as females who are not surgically sterile or who are not over the age of 52 and amenorrheic for at least 12 months) must utilize appropriate birth control throughout the study duration. Acceptable methods that may be used are abstinence, birth control pills (“The Pill”) or patch, diaphragm, IUD (coil), vaginal ring, condom, surgical sterilization or progestin implant or injection, or sexual activity limited to a sterile (e.g., vasectomized) male partner • 9. Male participants agreed to consistently and correctly use a condom in combination with one of the above methods of birth control from enrolment to 30 days after the last dose of study medication • 10. Participants were able to comply with dosing and able to complete the study schedule of assessments
The pharmacokinetics of administered 25HC3S was determined.

[2] = tested on: patients with Non-Alcoholic Steatohepatitis (NASH); assay: Phase 1b study in NASH patients: safety; format: in vivo, human; details: all three doses (50 mg, 150 mg, 600 mg daily), 4 weeks oral
Excerpt: A total of 63 patients completed the study with 21 patients per dose group (completion of MRI-PDFF measurement). […] Subjects provided written informed consent to participate in the study • 2. Males or females subjects 18 years or older, at the time of signing informed consent • 3. BMI 20-45 kg/m^2 • 4. […] Value of Fibroscan® ≥7 kPa • OR • b. MRE≥2.75 kPa • *Clinical diagnosis of NASH was defined in this clinical trial as the existence of one or more of the following risk factors for NASH, namely: • a. Type 2 diabetes or elevated fasting blood sugar • b. Abdominal obesity • c. Elevated lipid levels, especially elevated levels of serum triglycerides • d. Hypertension, or • e. Low levels of HDL cholesterol • 5. For serum transaminases, ALT concentration for all patients at the time of screening was >1 and <5 times upper limit of normal (ULN) of the central lab in the absence of another cause of liver disease. If a patient had lab records in the past 6 months, ALT concentrations were <20 U/L female and <30 U/L male. AST concentration for all patients at the time of screening was <5x ULN • 6. […] Platelet counts ≥120,000/mm^3 • 8. […]

[3] = Single oral dose safety and pharmacokinetic study in NASH and healthy subjects; format: in vivo, human; details: for Cmax: read-out: Cmax
Protocol: The present Example was a randomized, dose ranging, single dose safety and pharmacokinetic study of 25HC3S administered to subjects with NASH and control healthy subjects. […] For each cohort, 10 subjects with NASH were enrolled which were further classified into cirrhotic and non-cirrhotic. Each subject received only one dose of study treatment. The second cohort was dosed after a review of safety and tolerability data from Cohort 1.

[4] = Metabolite profiling of plasma, urine and feces after intravenous dose; format: in vivo, male Sprague Dawley rats; details: intravenous 10 mg/kg
Protocol: Nine male Sprague Dawley rats (Group 1) were designated for the pharmacokinetic phase, 3 male Sprague Dawley rats (Group 2) for the excretion mass balance phase, and 7 male Sprague Dawley rats (Group 3) and 9 male Long Evans rats (Group 4) for the tissue distribution phase. All animals received a single intravenous dose of [^14C]-25HC3S at 10 mg/kg and a target radioactivity of 225 μCi/kg. Blood samples were collected from all Group 1 animals at approximately 0.083, 0.25, 0.5, 1, 2, 4, 8, 12, 24, 48, and 72 hours post-dose. Urine and feces were collected from all Group 2 animals periodically through 168 hours post-dose. […] Following blood collection, animals were euthanized by CO2 inhalation and carcasses frozen in a dry ice/hexane bath for processing by quantitative whole body autoradiography. Whole blood, plasma, urine, feces, cage rinse, and cage wash were analyzed for total radioactivity by liquid scintillation counting.

NASH patients = details: 50 mg vs 200 mg oral; cited from earlier work

SMILES: C[C@H](CCCC(C)(C)O)[C@H]1CC[C@H]2[C@@H]3CC=C4C[C@@H](OS(=O)(=O)O)CC[C@]4(C)[C@H]3CC[C@]12C [25HC3S, 5-cholesten-3,25-diol, 3-sulfate]
- CL/F ([1]; 50 mg QD oral): 150.6 (51.5) L/h
- CL/F ([1]; 150 mg QD oral): 176.6 (80.5) L/h
- CL/F ([1]; 300 mg BID oral): 166.2 (60.4) L/h
- AUC(0-t) ([1]; 50 mg QD oral): 340 ng·h/mL
- Cmax ([1]; 50 mg QD oral): 79.1 ng/mL
- Tmax ([1]; 50 mg QD oral): 2.4 h
- half-life ([1]; 50 mg QD oral): 2.7 h
- AUC(0-t) ([1]; 150 mg QD oral): 1040 ng·h/mL
- Cmax ([1]; 150 mg QD oral): 274 ng/mL
- Tmax ([1]; 150 mg QD oral): 2 h
- half-life ([1]; 150 mg QD oral): 2.7 h
- AUC(0-t) ([1]; 300 mg BID oral): 2140 ng·h/mL
- Cmax ([1]; 300 mg BID oral): 430 ng/mL
- Tmax ([1]; 300 mg BID oral): 2.3 h
- half-life ([1]; 300 mg BID oral): 2.4 h
- PK parameters after repeat dosing ([1]; repeat vs single dose): comparable to those after a single dose and were dose dependent
- tolerability, drug related serious adverse events [2]: well tolerated at all three doses with no drug related serious adverse events observed
- difference in pharmacokinetics between healthy subjects and NASH patients ([3]; 50 mg and 200 mg single oral dose): no clear difference in pharmacokinetics
- CL/F ([3]; 200 mg single oral dose, Healthy, Mean): 171.25 ± 28.60 L/h
- time post-dose up to which plasma levels were detectable ([3]; Cohort 1 (50 mg) healthy subjects): up to 12 hours
- AUC0-inf, higher in NASH than healthy subjects ([3]; Cohort 2 (200 mg)): approximately 20%
- geometric mean AUC0-12 and AUC0-last, higher in NASH than healthy subjects ([3]; Cohort 2 (200 mg)): approximately 30%
- time post-dose up to which plasma levels were detectable ([3]; Cohort 2 (200 mg) healthy subjects): up to 16 hours
- increase of geometric mean Cmax in NASH over healthy subjects ([3]; Cohorts 1 and 2): 18-24%
- exposure (AUC parameters), potential increasing trends in NASH subjects ([3]; NASH vs healthy): up to 31%
- half-life ([3]; human, plasma, oral, across both healthy and NASH subject groups, 50 mg and 200 mg, read-out: T1/2, range of mean values): 1.67 to 2.51 h
- Cmax ([3]; human, plasma, 50 mg single oral dose, Healthy, Mean): 94 ± 27.3 ng/mL
- Cmax ([3]; human, plasma, 200 mg single oral dose, Healthy, Mean): 260 ± 54.8 ng/mL
- % of dose in feces ([4]; pools 0 to 48 hours postdose): 2 % of dose
- share of the exposure (AUC) to 25HC3S related radioactivity in plasma ([4]; up to 1 hour postdose): approximately 54%
- dose dependence of biological responses (NASH patients): no dose-dependent changes of biological responses
